Holding throughout (type): functional
In experiment [1] the target is T1, Orexin/Hypocretin receptor type 1 (Homo sapiens, UniProt O43613).
T1 sequence (O43613 whole entry): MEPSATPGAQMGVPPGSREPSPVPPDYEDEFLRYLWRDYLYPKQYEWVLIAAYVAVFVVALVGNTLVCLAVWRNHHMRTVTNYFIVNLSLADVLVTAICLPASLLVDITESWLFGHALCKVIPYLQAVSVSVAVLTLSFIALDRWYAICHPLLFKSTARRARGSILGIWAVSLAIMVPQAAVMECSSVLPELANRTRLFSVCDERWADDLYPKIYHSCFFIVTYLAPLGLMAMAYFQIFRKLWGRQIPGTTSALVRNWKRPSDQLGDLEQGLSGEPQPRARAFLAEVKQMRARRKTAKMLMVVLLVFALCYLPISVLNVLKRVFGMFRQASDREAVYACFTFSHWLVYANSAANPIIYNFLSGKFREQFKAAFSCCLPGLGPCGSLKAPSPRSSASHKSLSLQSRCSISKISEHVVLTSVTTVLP
The experiment is described as follows: Homogeneous Time Resolved Fluorescence (HTRF)-based cell-based high throughput dose response assay for antagonists of the orexin 1 receptor (OX1R; HCRTR1). [Related pubchem assays (depositor defined):AID434989, AID435008, AID463079, AID485270, AID492963, AID492964, AID492965, AID493232, AID504717, AID504718].

Experiment [2] concerns the target T2, Orexin receptor type 2 (Homo sapiens, UniProt O43614).
T2 sequence (O43614 whole entry): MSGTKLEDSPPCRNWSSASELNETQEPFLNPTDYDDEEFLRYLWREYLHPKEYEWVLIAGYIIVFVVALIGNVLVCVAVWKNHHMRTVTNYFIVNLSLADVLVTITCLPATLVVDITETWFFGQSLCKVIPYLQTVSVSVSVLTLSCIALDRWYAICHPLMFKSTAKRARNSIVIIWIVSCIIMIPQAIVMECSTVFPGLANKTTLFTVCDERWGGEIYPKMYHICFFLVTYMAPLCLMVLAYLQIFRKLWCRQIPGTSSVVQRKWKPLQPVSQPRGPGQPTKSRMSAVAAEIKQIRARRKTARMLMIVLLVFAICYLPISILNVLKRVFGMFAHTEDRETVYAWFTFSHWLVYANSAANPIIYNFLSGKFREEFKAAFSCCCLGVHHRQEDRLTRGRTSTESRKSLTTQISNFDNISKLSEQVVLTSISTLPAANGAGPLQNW
The experiment is described as follows: Counterscreen assay for antagonists of the orexin 1 receptor (OX1R; HCRTR1): Fluorescence-based cell-based dose response assay for antagonists of the orexin 2 receptor (OX2R; HCRTR2), run by assay provider.

A further experiment has as its system CHO-K1. The experiment is described as follows: Counterscreen for antagonists of the orexin 1 receptor (OX1R; HCRTR1): Homogeneous time resolved fluorescence (HTRF)-based cell-based dose response assay to identify antagonists of the parental CHO-K1 cell line. [Related pubchem assays (depositor defined):AID434989, AID435008, AID463079, AID485270, AID492963, AID492964, AID492965, AID493232, AID504699, AID504701]. As to conditions: Cricetulus griseus.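 Also: potency for inhibition of ATP-stimulated IP1 production as antagonists.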

Experiment [3] deals with T1, Orexin/Hypocretin receptor type 1. The experiment is described as follows: Fluorescence-based cell-based high throughput dose response assay for antagonists of the orexin 1 receptor (OX1R; HCRTR1). [Related pubchem assays (depositor defined):AID434989, AID435008, AID463079, AID485270, AID492963, AID492964, AID492965, AID493232, AID504717, AID504718].
A short description of experiment [4]: Counterscreen for antagonists of the orexin 1 receptor (OX1R; HCRTR1): Fluorescence-based cell-based high throughput dose response assay to identify antagonists of the parental CHO cell line. [Related pubchem assays (depositor defined):AID434989, AID435008, AID463079, AID485270, AID492963, AID492964, AID492965, AID493232, AID504699, AID504701].
Experiment [5] deals with T2, Orexin receptor type 2. The experiment is described as follows: Counterscreen assay for antagonists of the orexin 1 receptor (OX1R; HCRTR1): Homogeneous Time Resolved Fluorescence (HTRF)-based cell-based dose response assay for antagonists of the orexin 2 receptor (OX2R; HCRTR2), run by assay provider.
In experiment [6] the target is T3, Sentrin-specific protease 8 (Homo sapiens, UniProt Q96LD8).
T3 sequence (Q96LD8 whole entry): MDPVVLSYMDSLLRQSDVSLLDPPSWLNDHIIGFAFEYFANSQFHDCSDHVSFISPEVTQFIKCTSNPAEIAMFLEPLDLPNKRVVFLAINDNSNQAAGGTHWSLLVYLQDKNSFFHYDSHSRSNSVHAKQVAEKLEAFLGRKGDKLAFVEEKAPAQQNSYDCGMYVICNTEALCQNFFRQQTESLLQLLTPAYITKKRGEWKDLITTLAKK
The experiment is described as follows: inhibition of human SENP8 cleavage activity – biochemical, luminescence, SAR follow-up (AID 504501).

The target in experiment [7] is T4, Sentrin-specific protease 7 (Homo sapiens, UniProt Q9BQF6).
T4 sequence (Q9BQF6 whole entry): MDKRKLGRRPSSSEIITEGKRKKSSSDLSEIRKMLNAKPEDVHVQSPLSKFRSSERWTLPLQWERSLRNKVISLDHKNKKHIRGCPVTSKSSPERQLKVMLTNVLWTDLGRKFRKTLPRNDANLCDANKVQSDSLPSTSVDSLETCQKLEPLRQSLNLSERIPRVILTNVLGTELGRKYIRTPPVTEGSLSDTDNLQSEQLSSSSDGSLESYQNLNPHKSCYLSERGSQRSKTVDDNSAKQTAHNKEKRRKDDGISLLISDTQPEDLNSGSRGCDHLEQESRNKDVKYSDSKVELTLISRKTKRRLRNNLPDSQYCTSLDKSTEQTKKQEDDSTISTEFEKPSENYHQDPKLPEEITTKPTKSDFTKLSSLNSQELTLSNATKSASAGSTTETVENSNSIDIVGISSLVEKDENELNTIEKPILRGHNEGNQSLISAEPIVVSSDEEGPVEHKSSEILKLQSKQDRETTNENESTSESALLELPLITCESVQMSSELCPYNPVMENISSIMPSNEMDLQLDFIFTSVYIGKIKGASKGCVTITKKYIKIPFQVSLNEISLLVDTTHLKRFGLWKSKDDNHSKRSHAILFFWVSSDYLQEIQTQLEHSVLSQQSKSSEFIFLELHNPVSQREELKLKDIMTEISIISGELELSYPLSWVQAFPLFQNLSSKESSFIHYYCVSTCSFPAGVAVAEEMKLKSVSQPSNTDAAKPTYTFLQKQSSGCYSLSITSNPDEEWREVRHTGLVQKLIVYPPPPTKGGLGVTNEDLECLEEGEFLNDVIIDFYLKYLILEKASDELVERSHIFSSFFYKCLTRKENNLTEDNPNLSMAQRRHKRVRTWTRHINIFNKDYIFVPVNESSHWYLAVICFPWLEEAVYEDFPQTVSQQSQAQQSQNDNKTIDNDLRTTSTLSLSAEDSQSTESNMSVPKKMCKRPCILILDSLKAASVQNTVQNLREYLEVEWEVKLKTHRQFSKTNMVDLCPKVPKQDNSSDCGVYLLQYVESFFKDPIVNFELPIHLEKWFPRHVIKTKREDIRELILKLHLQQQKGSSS
The experiment is described as follows: inhibition of human SENP7 cleavage activity – biochemical, luminescence, SAR follow-up (AID 504497).

For another experiment, the target named is T5, Caspase-3 (Homo sapiens, UniProt P42574).
T5 sequence (P42574 whole entry): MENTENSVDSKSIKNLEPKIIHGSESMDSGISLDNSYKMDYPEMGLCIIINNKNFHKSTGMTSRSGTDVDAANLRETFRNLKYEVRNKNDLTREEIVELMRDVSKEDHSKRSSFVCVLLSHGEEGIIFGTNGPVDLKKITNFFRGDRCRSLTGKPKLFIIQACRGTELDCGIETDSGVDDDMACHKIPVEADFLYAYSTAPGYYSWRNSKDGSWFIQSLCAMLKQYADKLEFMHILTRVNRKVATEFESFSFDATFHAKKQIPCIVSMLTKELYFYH
The experiment is described as follows: SAR Analysis of small molecule inhibitors of Sentrin-specific proteases (SENPs) using a Caspase-3 Selectivity assay. [Related pubchem assays (depositor defined):AID2540, AID2599, AID434973, AID489001].

Experiment [8] deals with T6, Sentrin-specific protease 6 (Homo sapiens, UniProt Q9GZR1).
T6 sequence (Q9GZR1 whole entry): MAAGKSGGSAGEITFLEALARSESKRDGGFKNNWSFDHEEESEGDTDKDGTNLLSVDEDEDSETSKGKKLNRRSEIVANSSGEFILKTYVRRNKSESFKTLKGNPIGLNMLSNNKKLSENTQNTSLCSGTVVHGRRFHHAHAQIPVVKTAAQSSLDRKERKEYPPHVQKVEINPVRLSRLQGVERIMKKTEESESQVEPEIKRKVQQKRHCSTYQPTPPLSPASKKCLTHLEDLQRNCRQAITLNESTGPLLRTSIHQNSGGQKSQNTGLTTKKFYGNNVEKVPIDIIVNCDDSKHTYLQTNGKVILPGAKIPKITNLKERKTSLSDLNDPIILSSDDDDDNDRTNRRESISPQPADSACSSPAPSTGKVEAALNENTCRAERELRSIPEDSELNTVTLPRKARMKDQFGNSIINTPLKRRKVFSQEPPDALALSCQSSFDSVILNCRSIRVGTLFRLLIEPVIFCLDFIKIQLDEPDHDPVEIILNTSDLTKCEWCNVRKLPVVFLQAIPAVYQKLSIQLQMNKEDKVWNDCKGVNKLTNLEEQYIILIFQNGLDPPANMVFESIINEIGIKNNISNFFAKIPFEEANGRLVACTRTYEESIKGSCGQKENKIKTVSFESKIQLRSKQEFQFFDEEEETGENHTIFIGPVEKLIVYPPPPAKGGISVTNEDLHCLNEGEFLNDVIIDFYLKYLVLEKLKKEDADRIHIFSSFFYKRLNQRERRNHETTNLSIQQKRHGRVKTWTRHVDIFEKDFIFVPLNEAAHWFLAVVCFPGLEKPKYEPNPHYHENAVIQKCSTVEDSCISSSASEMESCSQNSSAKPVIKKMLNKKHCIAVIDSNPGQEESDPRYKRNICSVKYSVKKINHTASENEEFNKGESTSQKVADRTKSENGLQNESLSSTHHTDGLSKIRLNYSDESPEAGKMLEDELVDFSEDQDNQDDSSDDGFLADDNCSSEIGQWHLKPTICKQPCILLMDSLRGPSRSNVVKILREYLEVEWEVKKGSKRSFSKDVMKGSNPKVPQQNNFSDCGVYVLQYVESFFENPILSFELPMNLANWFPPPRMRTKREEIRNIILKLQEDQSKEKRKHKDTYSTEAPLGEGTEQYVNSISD
The experiment is described as follows: SAR Analysis of small molecule inhibitors of Sentrin-specific protease 6 (SENP6) using a Luminescent assay. [Related pubchem assays (depositor defined):AID2582, AID2599].

The nature of experiment [9]: A Cell Based Secondary Assay To Explore Cytotoxicity of Compounds that Sensitize Mycobacterium Tuberculosis to Beta-Lactam Antibiotics.

Molecules are shown by their SMILES. The source made the active and inactive calls.

`CCOc1ccccc1C(=O)NCCNC(=O)c1ccccc1OCC`: the IC50 in [1] was 4.15 µM (active); at Orexin receptor type 2 [2], > 88.8 µM (inactive); with CHO-K1, > 66.2 µM (inactive); in experiment [3], 3.27 µM (active); in [4], > 49.8 µM (inactive); on Orexin receptor type 2 [5] it was 2.78 µM (active).

In the case of `NC(=O)c1ccc(NC(=O)c2ccc3c(c2)OCO3)cc1`, the IC50 in [6] is > 99 µM (inactive); in experiment [7], 12.9 µM (active); on Caspase-3, 7.08 µM (active); in experiment [8], > 99 µM (inactive).

For `c1ccc(CN2CCN(C3CCCSc4ccccc43)CC2)cc1` (configuration not stated), the IC50 in experiment [1] was 1.59 µM (active); at Orexin receptor type 2 [2], > 88.8 µM (inactive); with CHO-K1, > 66.2 µM (inactive); in [3] it was 23.9 µM (inactive); in experiment [4], > 49.8 µM (inactive); at Orexin receptor type 2 [5] it was > 50 µM (inactive).

As to `COc1ccc(OC)c(S(=O)(=O)NCC(c2ccco2)N2CCc3ccccc32)c1` (configuration not stated), the IC50 is 2.3 µM (active) in [1]; 10.5 µM (inactive) on Orexin receptor type 2 [2]; > 66.2 µM (inactive) in the experiment with CHO-K1; 2 µM (active) in experiment [3]; > 49.8 µM (inactive) in [4]; > 50 µM (inactive) on Orexin receptor type 2 [5].

Take `Brc1ccc(-c2nc(/C=C/c3ccccc3)no2)cc1`: the IC50 (in [6]; in [7]; at Caspase-3; in experiment [8]) was > 99 µM (inactive) in each case.

As to `C=CCn1c(SCc2ccc(C(=O)Nc3nccs3)cc2)nnc1-c1ccc(C)c(Cl)c1`, the IC50 in experiment [1] was 0.919 µM (active); at Orexin receptor type 2 [2], 18 µM (inactive); in the experiment with CHO-K1, > 66.2 µM (inactive); in experiment [3], 4.95 µM (active); in [4] it was 18.3 µM (inactive); at Orexin receptor type 2 [5] it was > 50 µM (inactive). The CC50 in experiment [9] is 33 µM (active).

`COC(=O)c1ccccc1NC1=C/C(=N/S(=O)(=O)c2cccs2)c2ccccc2C1=O`: the concentration for half-maximal inhibition (IC50) was 4.02 µM (active) in experiment [6], 2.42 µM (active) in experiment [7], 24.5 µM (active) on Caspase-3 and 2.15 µM (active) in experiment [8].

The values above are taken from ChEMBL document CHEMBL1201862, “PubChem BioAssay data set” (2004).
